# From patent US20220126077A1, “Treatment for Dry Eyes” (priority 2020, published 2022)
# System: lacrimal glands
# Assay: Experimentation with balm ingredients applied to the skin adjacent the eyes: tear production
# Assay type: in vivo
# Conditions: vapor released over time
# From the text: The formulation particularly preferred for the balm includes caffeine, in a medically useful amount, which, when applied to the skin adjacent the eyes, promotes blood circulation thereto. Additionally included is menthol in a medically useful amount, which is included to release a vapor over a period of time subsequent to application to the skin.
# By adjacent to the eye is meant the skin area on the face which is below the lower eye lid, and between the end of the nose of the user and the outside end of the eye of the user which is closest to the ear on the same side as the eye being treated.
# The plurality of active ingredients have been found, in experimentation when employed together, to have a beneficial synergistic effect which is well beyond the effect of the individual ingredients when employed in a balm by themselves. Currently, an active ingredient portion of the total volume of the balm mixture, includes a combination of active ingredients blended and combined to an active ingredient portion of the total balm mixture. This active ingredient portion of the total mixture ranges from 20 to 60 percent of the total volume of the balm mixture. […]
compound,measurement,value
"CC1CCC(C(C)C)C(O)C1 (stereo not shown) [menthol, Menthol]",production of tears by the lacrimal glands,stimulate the lacrimal glands to produce tears
